Test results: PubChem BioAssay AID2060506 (Molecular Pharmacology Branch, DTP, NCI, 2025)

Test system: 598228-144-R-J1-PDC complex spheroid viability
Experiment: Anticancer human tumor 598228-144-R-J1-PDC patient-derived serous endometrial adenocarcinoma cell line growth inhibition [GQUAD]
Details: for IC50: curve of first compound; for viability, T/C: stronger effect = lower value
In short: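 Viability of tumor cells grown as complex spheroids with endothelial and stromal cells, exposed to drug combinations. Top concentration at or near clinical Cmax (else 10 microM), diluted in half-log increments.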

[1] = second compound 0.0316 µM, first compound 0.0316 µM
[2] = second compound 0.0316 µM, first compound 0.1 µM
[3] = second compound 0.0316 µM, first compound 0.316 µM
[4] = second compound 0.0316 µM, first compound 1 µM
[5] = second compound 0.0316 µM, first compound 3.16 µM
[6] = second compound 0.0316 µM, first compound 10 µM
[7] = second compound 0.1 µM, first compound 0.0316 µM
[8] = second compound 0.1 µM, first compound 0.1 µM
[9] = second compound 0.1 µM, first compound 0.316 µM
[10] = second compound 0.1 µM, first compound 1 µM
[11] = second compound 0.1 µM, first compound 3.16 µM
[12] = second compound 0.1 µM, first compound 10 µM
[13] = second compound 0.316 µM, first compound 0.0316 µM
[14] = second compound 0.316 µM, first compound 0.1 µM
[15] = second compound 0.316 µM, first compound 0.316 µM
[16] = second compound 0.316 µM, first compound 1 µM
[17] = second compound 0.316 µM, first compound 3.16 µM
[18] = second compound 0.316 µM, first compound 10 µM
[19] = second compound 1 µM, first compound 0.0316 µM
[20] = second compound 1 µM, first compound 0.1 µM
[21] = second compound 1 µM, first compound 0.316 µM
[22] = second compound 1 µM, first compound 1 µM
[23] = second compound 1 µM, first compound 3.16 µM
[24] = second compound 1 µM, first compound 10 µM
[25] = second compound 3.16 µM, first compound 0.0316 µM
[26] = second compound 3.16 µM, first compound 0.1 µM
[27] = second compound 3.16 µM, first compound 0.316 µM
[28] = second compound 3.16 µM, first compound 1 µM
[29] = second compound 3.16 µM, first compound 3.16 µM
[30] = second compound 3.16 µM, first compound 10 µM
[31] = second compound 10 µM, first compound 0.0316 µM
[32] = second compound 10 µM, first compound 0.1 µM
[33] = second compound 10 µM, first compound 0.316 µM
[34] = second compound 10 µM, first compound 1 µM
[35] = second compound 10 µM, first compound 3.16 µM
[36] = second compound 10 µM, first compound 10 µM
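Further: spheroids exposed to the agents for one week before reading.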
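Wherever viability, T/C is given: percent of vehicle DMSO control viability so 100% = untreated growth.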

## C=CC(=O)N1CCN(c2nc(=O)n(-c3c(C)ccnc3C(C)C)c3nc(-c4c(O)cccc4F)c(F)cc23)C(C)C1 (stereo not drawn) + CN(C)c1ccc(Nc2c3ccc(NC(=O)CCN4CCCC4)cc3nc3cc(NC(=O)CCN4CCCC4)ccc23)cc1
Second compound 0.0316 µM
  IC50: > 10 µM
Second compound 0.1 µM
  IC50: > 10 µM
Second compound 0.316 µM
  IC50: > 10 µM
Second compound 1 µM
  IC50: > 10 µM
Second compound 3.16 µM
  IC50: > 10 µM
Second compound 10 µM
  IC50: > 10 µM
[1]
  viability, T/C: 94.4%
[2]
  viability, T/C: 105%
[3]
  viability, T/C: 101%
[4]
  viability, T/C: 120%
[5]
  viability, T/C: 122%
[6]
  viability, T/C: 122%
[7]
  viability, T/C: 93.6%
[8]
  viability, T/C: 103%
[9]
  viability, T/C: 122%
[10]
  viability, T/C: 122%
[11]
  viability, T/C: 119%
[12]
  viability, T/C: 109%
[13]
  viability, T/C: 97.8%
[14]
  viability, T/C: 112%
[15]
  viability, T/C: 105%
[16]
  viability, T/C: 123%
[17]
  viability, T/C: 140%
[18]
  viability, T/C: 110%
[19]
  viability, T/C: 80.8%
[20]
  viability, T/C: 105%
[21]
  viability, T/C: 103%
[22]
  viability, T/C: 121%
[23]
  viability, T/C: 135%
[24]
  viability, T/C: 93.8%
[25]
  viability, T/C: 93.5%
[26]
  viability, T/C: 111%
[27]
  viability, T/C: 114%
[28]
  viability, T/C: 117%
[29]
  viability, T/C: 132%
[30]
  viability, T/C: 121%
[31]
  viability, T/C: 79.6%
[32]
  viability, T/C: 85.5%
[33]
  viability, T/C: 115%
[34]
  viability, T/C: 115%
[35]
  viability, T/C: 124%
[36]
  viability, T/C: 73%

## Cc1cccc(N(C)C(=O)C2C(O)CCN2c2nc(C)cc(C(F)(F)F)c2C#N)c1 (stereo not drawn) + CN(C)c1ccc(Nc2c3ccc(NC(=O)CCN4CCCC4)cc3nc3cc(NC(=O)CCN4CCCC4)ccc23)cc1
Second compound 0.0316 µM
  IC50: > 10 µM
Second compound 0.1 µM
  IC50: > 10 µM
Second compound 0.316 µM
  IC50: > 10 µM
Second compound 1 µM
  IC50: > 10 µM
Second compound 3.16 µM
  IC50: > 10 µM
Second compound 10 µM
  IC50: 3.95 µM
[1]
  viability, T/C: 114%
[2]
  viability, T/C: 96.9%
[3]
  viability, T/C: 98.3%
[4]
  viability, T/C: 105%
[5]
  viability, T/C: 91.5%
[6]
  viability, T/C: 103%
[7]
  viability, T/C: 103%
[8]
  viability, T/C: 107%
[9]
  viability, T/C: 107%
[10]
  viability, T/C: 108%
[11]
  viability, T/C: 103%
[12]
  viability, T/C: 84.9%
[13]
  viability, T/C: 94%
[14]
  viability, T/C: 124%
[15]
  viability, T/C: 100%
[16]
  viability, T/C: 125%
[17]
  viability, T/C: 118%
[18]
  viability, T/C: 113%
[19]
  viability, T/C: 98.5%
[20]
  viability, T/C: 114%
[21]
  viability, T/C: 106%
[22]
  viability, T/C: 101%
[23]
  viability, T/C: 106%
[24]
  viability, T/C: 111%
[25]
  viability, T/C: 114%
[26]
  viability, T/C: 106%
[27]
  viability, T/C: 106%
[28]
  viability, T/C: 95.2%
[29]
  viability, T/C: 108%
[30]
  viability, T/C: 86.4%
[31]
  viability, T/C: 96.6%
[32]
  viability, T/C: 78.7%
[33]
  viability, T/C: 107%
[34]
  viability, T/C: 86.5%
[35]
  viability, T/C: 55.2%
[36]
  viability, T/C: 29.1%

## Cn1ncnc1[C@H]1c2n[nH]c(=O)c3cc(F)cc(c23)N[C@@H]1c1ccc(F)cc1 + CN(C)c1ccc(Nc2c3ccc(NC(=O)CCN4CCCC4)cc3nc3cc(NC(=O)CCN4CCCC4)ccc23)cc1
Second compound 0.0316 µM
  IC50: > 0.316 µM
Second compound 0.1 µM
  IC50: > 0.316 µM
Second compound 0.316 µM
  IC50: > 0.316 µM
Second compound 1 µM
  IC50: > 0.316 µM
Second compound 3.16 µM
  IC50: > 0.316 µM
Second compound 10 µM
  IC50: > 0.316 µM
Second compound 0.0316 µM, first compound 0.000999 µM
  viability, T/C: 118%
Second compound 0.0316 µM, first compound 0.00316 µM
  viability, T/C: 93.2%
Second compound 0.0316 µM, first compound 0.00999 µM
  viability, T/C: 103%
[1]
  viability, T/C: 86.3%
Second compound 0.0316 µM, first compound 0.0999 µM
  viability, T/C: 80.8%
[3]
  viability, T/C: 76.8%
Second compound 0.1 µM, first compound 0.000999 µM
  viability, T/C: 104%
Second compound 0.1 µM, first compound 0.00316 µM
  viability, T/C: 97.5%
Second compound 0.1 µM, first compound 0.00999 µM
  viability, T/C: 100%
[7]
  viability, T/C: 80.8%
Second compound 0.1 µM, first compound 0.0999 µM
  viability, T/C: 87.8%
[9]
  viability, T/C: 76.2%
Second compound 0.316 µM, first compound 0.000999 µM
  viability, T/C: 106%
Second compound 0.316 µM, first compound 0.00316 µM
  viability, T/C: 108%
Second compound 0.316 µM, first compound 0.00999 µM
  viability, T/C: 100%
[13]
  viability, T/C: 106%
Second compound 0.316 µM, first compound 0.0999 µM
  viability, T/C: 87.6%
[15]
  viability, T/C: 62%
Second compound 1 µM, first compound 0.000999 µM
  viability, T/C: 101%
Second compound 1 µM, first compound 0.00316 µM
  viability, T/C: 97.3%
Second compound 1 µM, first compound 0.00999 µM
  viability, T/C: 114%
[19]
  viability, T/C: 110%
Second compound 1 µM, first compound 0.0999 µM
  viability, T/C: 95.7%
[21]
  viability, T/C: 81.2%
Second compound 3.16 µM, first compound 0.000999 µM
  viability, T/C: 112%
Second compound 3.16 µM, first compound 0.00316 µM
  viability, T/C: 112%
Second compound 3.16 µM, first compound 0.00999 µM
  viability, T/C: 91.8%
[25]
  viability, T/C: 80.7%
Second compound 3.16 µM, first compound 0.0999 µM
  viability, T/C: 93.1%
[27]
  viability, T/C: 69.8%
Second compound 10 µM, first compound 0.000999 µM
  viability, T/C: 91.7%
Second compound 10 µM, first compound 0.00316 µM
  viability, T/C: 86.3%
Second compound 10 µM, first compound 0.00999 µM
  viability, T/C: 96.2%
[31]
  viability, T/C: 68.7%
Second compound 10 µM, first compound 0.0999 µM
  viability, T/C: 73.2%
[33]
  viability, T/C: 53.7%

## O=C(c1cc(Cc2n[nH]c(=O)c3ccccc23)ccc1F)N1CCN(C(=O)C2CC2)CC1 + CN(C)c1ccc(Nc2c3ccc(NC(=O)CCN4CCCC4)cc3nc3cc(NC(=O)CCN4CCCC4)ccc23)cc1
Second compound 0.0316 µM
  IC50: > 10 µM
Second compound 0.1 µM
  IC50: > 10 µM
Second compound 0.316 µM
  IC50: > 10 µM
Second compound 1 µM
  IC50: > 10 µM
Second compound 3.16 µM
  IC50: > 10 µM
Second compound 10 µM
  IC50: > 10 µM
[1]
  viability, T/C: 84.9%
[2]
  viability, T/C: 92.6%
[3]
  viability, T/C: 79.7%
[4]
  viability, T/C: 92.9%
[5]
  viability, T/C: 95%
[6]
  viability, T/C: 75.8%
[7]
  viability, T/C: 110%
[8]
  viability, T/C: 101%
[9]
  viability, T/C: 91%
[10]
  viability, T/C: 84.4%
[11]
  viability, T/C: 87.2%
[12]
  viability, T/C: 75.1%
[13]
  viability, T/C: 98%
[14]
  viability, T/C: 85.3%
[15]
  viability, T/C: 96.6%
[16]
  viability, T/C: 91.1%
[17]
  viability, T/C: 93.9%
[18]
  viability, T/C: 65.9%
[19]
  viability, T/C: 82.5%
[20]
  viability, T/C: 93.9%
[21]
  viability, T/C: 103%
[22]
  viability, T/C: 87.5%
[23]
  viability, T/C: 87.4%
[24]
  viability, T/C: 54.1%
[25]
  viability, T/C: 98.8%
[26]
  viability, T/C: 91.8%
[27]
  viability, T/C: 92.8%
[28]
  viability, T/C: 88.3%
[29]
  viability, T/C: 92.9%
[30]
  viability, T/C: 68.3%
[31]
  viability, T/C: 76.4%
[32]
  viability, T/C: 89.3%
[33]
  viability, T/C: 91.9%
[34]
  viability, T/C: 73.8%
[35]
  viability, T/C: 89.7%
[36]
  viability, T/C: 50.3%
